Assay: diffusion through polydimethylsiloxane membrane (MAPI, electrospray mass spectrometry detection)
Type: physicochemical
Conditions: polydimethylsiloxane membrane 0.01 to 0.05 inches thick; result in words, curves in FIGS. 8-11
From the text: In operation, once the membrane and spacer are in place and the top portion 50 and bottom plate 56 are secured, a substance under study can be placed in contact with the first side of the membrane. Carrier fluid can be flowing through volume 64 and to a detection means. As the substance diffuses through the membrane and exits the second side of the membrane, it can be carried to the detection apparatus for analysis. In this way, an accurate time dependent curve can be generated as to the amounts of the substance under study exiting the second side of the membrane. This example illustrates the results from diffusion of a variety of substances through polydimethylsiloxane membrane obtained from PILLAR SCIENTIFIC, ranging in thickness from 0.01 inches to 0.05 inches. A mass spectrometer was used as a detection apparatus with electrospray ionization utilized to ionize the sample for detection in the mass spectrometer.

| SMILES | diffusion through the membrane (relative abundance exiting the second side as a function of time) |
| --- | --- |
| Clc1cccc(Cl)c1N=C1NCCN1 [clonidine] | clonidine diffusing through the membrane |
| COC(=O)c1ccc(O)cc1 [methyl paraben] | diffusion of methyl paraben through the polydimethylsiloxane membrane |
| CCOC(=O)c1ccc(O)cc1 [ethyl paraben] | diffusion of ethyl paraben through the polydimethylsiloxane membrane |
| CCCCOC(=O)c1ccc(O)cc1 [n-butyl paraben] | diffusion of n-butyl paraben through the polydimethylsiloxane membrane |

— patent US6360588B1, “Materials and methods for the analysis of substances passing through a membrane” (priority 1998, dated 2002)
